In PMC10537410 (Pharmaceutics, 2023):

Assay: In vitro dissolution in simulated lung fluid
Format: physicochemical
Conditions: simulated lung fluid with 0.01% w/v DPPC, ca. 2 mg CsA in 100 mL, 100 r/min, 37 °C, HPLC; n = 3
Protocol: In vitro dissolution was carried out in simulated lung fluid. Simulated lung fluid was prepared with some modifications according to the literature. The composition of simulated lung fluid included NaCl (6.40 g/L), CaCl2·2H2O (0.26 g/L), Na2HPO4 (0.15 g/L), NaHCO3 (2.70 g/L), NH4Cl (0.12 g/L), MgCl2 (0.10 g/L), Na2SO4·10H2O (0.18 g/L), Na3citrate·2H2O (0.16 g/L), Glycine (0.19 g/L), and dipalmitoylphosphatidylcholine (0.01% w/v). Raw CsA and formulation (ca. 2 mg CsA) were dispersed in 100 mL dissolution medium and placed in a magnetic stirrer (MR Hei-Tec, Heidolph, Germany) maintained at 100 r/min and 37 °C. At predetermined intervals, suspensions (0.5 mL) were withdrawn and centrifuged. The supernatants were diluted with 0.5 mL of ethanol and determined by the HPLC method, as described in Section 2.3.

In the case of Cyclosporine A [raw CsA], the “Release amount within 24 h” value is reported as at most 24%.
